This is an account of results in patent US11999749B2, “Synthesis of a bis-mesylate salt of 4-amino-N-(1-((3-chloro-2-fluorophenyl)amino)-6-methylisoquinolin-5-yl)thieno[3,2-d]pyrimidine-7-carboxamide and intermediates thereto” (Genentech, Inc., priority 2021, dated 2024).

A short description of data set [1]: solubility screen of 1b in organic solvents. It is filed as physicochemical. The source says:
This is notwithstanding the previously established solubility of 1b in NMP; that solvent should not be used due to its toxicity and the allowed limit of ˜500 ppm in the final pharmaceutical product. The limit for NMP is considerably lower than the 5,000 ppm permitted for DMSO. One of the reasons for relying on the recrystallization step is to remove an excess of NMP from the final product.
The selection of an appropriate anti-solvent is based at least in part on good miscibility with the other solvent(s) being used, low solubility of the solid form (to give desired form), and the ability to effectively remove impurities. To ensure the best control and purge of inorganic impurities in the crude product, water was selected as the anti-solvent. To this end, a more detailed solubility study of the crude material in DMSO/water mixtures at 10, 70, 75 and 80° C. indicated a steep dependence of the solubility of 1b on water content, with temperature having a smaller impact on recovery yield.

Data set [2] can be described thus: hygroscopicity of the salt forms. Format: physicochemical. Conditions: relative to the bis-HCl salt.

Consider `Cc1ccc2c(Nc3cccc(Cl)c3F)nccc2c1NC(=O)c1csc2c(N)ncnc12` [Compound 1b, 4-amino-N-(1-((3-chloro-2-fluorophenyl)amino)-6-methylisoquinolin-5-yl)thieno[3,2-d]pyrimidine-7-carboxamide bis-mesylate], for which the solubility entry was “sufficient solubility” in data set [1] (in DMSO) and “exceptionally low solubility” in data set [1] (in most organic solvents, initial solubility screen). The hygroscopicity entry in data set [2] is recorded as “lower hygroscopicity”.
